# Like-named read-outs stand apart in the source and are kept apart here.
# Experiments:
# [1] = Rat liver microsomes stability with NADPH; conditions: for half-life at 2 μM / microsomal CLint at 2 μM: male, rat, microsomes; for Remaining Percentage (%) after 60 min, Rat: rat liver microsomes, with NADPH, 2 μM
# Method: The objective of this study was to estimate in vitro metabolic stability of exemplary compounds in pooled human, male rat and male mouse liver microsomes. The concentrations of exemplary compounds in reaction systems were evaluated by LC-MS/MS for estimating the stability in pooled human, male rat and male mouse liver microsomes. The in vitro intrinsic clearances of test compounds were determined as well.
# A master solution in the “Incubation Plate” containing phosphate buffer, ultra-pure H2O, MgCl2 solution and liver microsomes was made according to Table 3. The mixture was pre-warmed at 37° C. water bath for 5 minutes.
# 40 μL of 10 mM NADPH solution was added to each well. The final concentration of NADPH was 1 mM. The negative control samples were prepared by replacing NADPH with 40 μL of ultra-pure H2O. Samples were prepared in duplicate. Negative controls were prepared in singlet.
# The reaction was started with the addition of 4 μL of 200 μM exemplary test compounds or control compounds to each master solution to get the final concentration of 2 μM. This study was performed in duplicate.
# Aliquots of 50 μL were taken from the reaction solution at 0, 15, 30, 45 and 60 minutes. The reaction solutions were stopped by the addition of 4 volumes of cold methanol with IS (100 nM alprazolam, 200 nM imipramine, 200 nM labetalol and 2 μM ketoprofen). Samples were centrifuged at 3,220 g for 40 minutes. Aliquot of 90 μL of the supernatant was mixed with 90 μL of ultra-pure H2O and then was used for LC-MS/MS analysis.
# LC/MS analysis was performed for all samples from this study using a Shimadzu liquid chromatograph separation system equipped with degasser DGU-20A5R; solvent delivery unit LC-30AD; system controller SIL-30AC; column oven CTO-30A; CTC Analytics HTC PAL System. Mass spectrometric analysis was performed using an Triple Quad™ 5500 instrument.
# All calculations were carried out using Microsoft Excel. Peak areas were determined from extracted ion chromatograms. The slope value, k, was determined by linear regression of the natural logarithm of the remaining percentage of the parent drug vs. incubation time curve.
# Conversion of the in vitro t1/2 (min) into the in vitro intrinsic clearance (in vitro CLint, in μL/min/mg proteins) was done using the following equation (mean of duplicate determinations): […]
# [2] = In vivo pharmacokinetics in male SD rats (IV and PO); conditions: rat; for AUC(0-inf) / C0 / clearance / AUC(0-t) / half-life / MRT inf / Vd / Cmax / Tmax / bioavailability: male, SD, plasma; for AUC(0-t): read-out: AUC0-tlast; for half-life: read-out: Apparent t1/2 (converted); for MRT inf: read-out: MRT0-inf; for Vd: read-out: Vss; for bioavailability: read-out: F (bioavailability)
# Method: Example 26: In Vivo Assessment of the Pharmacokinetics in Mice and Rats Formulations were administered intravenously (i.v.) via the tail vein or orally (p.o.) by gavage with disposable feeding needles. i. Analysis software: Phoenix® WinNonlin® 8.2 (Pharsight, Certara, Mountainview, Calif.) ii. Analysis methods: non-compartmental analysis, linear up/log down trapezoidal rule iii. PK parameters: C0, t1/2, AUC0-tlast. AUC0-∞, CL, Vss, MRT, tmax(po), Cmax(po), F, as appropriate • C0 concentration extrapolated to time zero following an i.v. dose • tmax time at which maximum concentration is observed • Cmax maximum observed concentration • Apparent t1/2 apparent terminal half-life • AUC0-tlast area under the concentration vs time curve from time 0 to the time of the last measurable concentration • AUC0-inf area under the concentration vs time curve from time 0 to infinity • CL systemic clearance • MRT0-inf mean residence time from time zero to infinity • Vss steady-state volume of distribution • F bioavailability=(Dose^iv*AUC^po)/(Dose^po*AUC^iv)*100
# [3] = biological target: human 5-HT2A (h5-HT2A) receptor (Homo sapiens (Human), UniProt P28223); assay: FLIPR calcium assay, human 5-HT2A receptor, agonist mode; assay type: cell-based
# Method: I. Assessment of the Activated Effect of Exemplary Compounds of Formula I Targeting on Human 5-HT2A (h5-HT2A) Receptor Under Agonist Mode:
# 1. Culture the cells in cell culture medium (DMEM containing 10% FBS, 1× penicillin-streptomycin 300 μg/ml G418 and 100 μg/ml hygromycin B) at 37° C., 5% (v/v) CO2.
# 2. One day before the assays, detach the cell using TrypLE™ Express and count cells using cell counter.
# 3. Seed 20000 cells/well in 30 μl/well culture medium to a 384-well cell plate and incubate the cells overnight at 37° C., 5% (v/v) CO2.
# 4. On the assay day, prepare 2×dye solution following the manual of the FLIPR® Calcium 6 Assay Kit: i. Dilute the dye with assay buffer(20 mM HEPES in 1× HBSS, PH7.4); ii. Add probenecid to the final concentration of 5 mM; iii. Vortex vigorously for 1-2 minutes.
# 5. Medium from cell plate by flicking the cell plate on towel papers.
# 6. Add 10 μl of assay buffer and 10 μl of 2×dye solution to each well of the cell plate.
# 7. Put the cell plate on plate shaker, agitate the plate at 600 rpm for 2 minutes. Incubate the plate at 37° C. for 2 hours followed by additional 15-minute incubation at 25° C.
# 8. Prepare 3×compound in assay buffer: a. Dilute reference compounds to required concentration with DMSO. Add the compounds to a 384-well compound plate; b. Perform serial dilutions; c. Add 10 mM test compounds to the compound plate, perform 3-fold serial dilutions. d. […] Add 20 μl/well assay buffer to the compound plate; f. Mix the plate on plate shaker for 2 mins;
# i. The normalized fluorescence reading (RFU) is calculated as shown follow, while Fmax and Fmin stand for maximum and minimum of calcium signal during defined time window: RFU=Fmax−Fmin
# ii. Calculate the percentage activation by using following equation: […]
# iii. Calculate EC50 by fitting % activation against log of compound concentrations with Hill equation using XLfit.
SMILES,half-life at 2 μM [1] [min],microsomal CLint at 2 μM [1] [µL/min/mg],"Remaining Percentage (%) after 60 min, Rat [1] [%]","AUC(0-inf) ([2]; IV, 0.3 mg/kg) [ng·h/mL]","C0 ([2]; IV, 0.3 mg/kg) [ng/mL]","clearance ([2]; IV, 0.3 mg/kg) [mL/min/kg]","AUC(0-t) ([2]; IV, 0.3 mg/kg) [ng·h/mL]","half-life ([2]; IV, 0.3 mg/kg) [min]","MRT inf ([2]; IV, 0.3 mg/kg) [min]","Vd ([2]; IV, 0.3 mg/kg) [L/kg]","AUC(0-inf) ([2]; PO, 3 mg/kg) [ng·h/mL]","Cmax ([2]; PO, 3 mg/kg) [ng/mL]","Tmax ([2]; PO, 3 mg/kg) [min]","AUC(0-t) ([2]; PO, 3 mg/kg) [ng·h/mL]","half-life ([2]; PO, 3 mg/kg) [min]","bioavailability ([2]; PO, 3 mg/kg) [%]","MRT inf ([2]; PO, 3 mg/kg) [min]","AUC0-inf/Dose ([2]; IV, 0.3 mg/kg) [kg·ng·h/mL/mg]","AUC0-inf/Dose ([2]; PO, 3 mg/kg) [kg·ng·h/mL/mg]","Cmax/Dose ([2]; PO, 3 mg/kg) [kg·ng/mL/mg]",other results
"[2H]C([2H])(c1c[nH]c2cccc(OC)c12)[C@H]1CCCN1C([2H])([2H])[2H] [Compound I-39, (R)-4-methoxy-3-((1-(methyl-d3)pyrrolidin-2-yl)methyl-d2)-1H-indole]",12.2,113,3.34,26.5 ± 3.62,50.8 ± 4.63,192,25.9 ± 3.49,46 ± 2.21,52.9 ± 1.79,10.1 ± 1.01,36.5,14.8 ± 3.61,200 ± 139,1.48,88.8 ± 48.8,19.6 ± 10.3,191,88.3 ± 12.1,17.3 ± 9.09,4.92 ± 1.20,EC50 [3]: < 1000 nM
"[2H]C([2H])(c1c[nH]c2cccc(O)c12)[C@H]1CCCN1C([2H])([2H])[2H] [Compound I-44, (R)-3-((1-(methyl-d3)pyrrolidin-2-yl)methyl-d2)-1H-indol-4-ol]",36.5,38,32.00,27.3 ± 0.413,70.2 ± 2.67,183,26.4 ± 0.186,25.8 ± 2.23,31.7 ± 1.53,5.8 ± 0.196,392 ± 109,182 ± 107,30 ± 26,384 ± 98.9,195 ± 81.6,144 ± 40.1,188 ± 91.2,91.0 ± 1.38,131 ± 36.5,60.7 ± 35.5,EC50 [3]: < 1000 nM
"[2H]C([2H])([2H])N1CCC[C@@H]1Cc1c[nH]c2cccc(O)c12 [Compound I-2, (R)-3-((1-(methyl-d3)pyrrolidin-2-yl)methyl)-1H-indol-4-ol]",37.6,36.8,33.13,28.7 ± 3.82,77.4 ± 7.22,177,27.6 ± 3.27,35.6 ± 15.7,36.5 ± 5.9,6.45 ± 1.4,419 ± 56.1,201 ± 50.9,20 ± 8.64,409 ± 46.1,161 ± 117,146 ± 19.5,137 ± 34,95.6 ± 12.7,140 ± 18.7,66.9 ± 17.0,EC50 [3]: < 1000 nM

# Reference: patent publication US11453689B2, “3-pyrrolidine-indole derivatives as serotonergic psychedelic agents for the treatment of CNS disorders” (Mindset Pharma Inc., priority 2020, dated 2022)
